Experiments:
[1] = system: PBMC from HIV-infected patients; experiment: Proliferation of PBMC from HIV-infected individuals in vitro, 3H thymidine incorporation; format: cell-based, human; conditions: for stimulation of proliferation (incorporation of 3H thymidine, cpm): very low doses, FIG. 1
Description: Peripheral blood mononuclear cells (PBMC) were obtained by standard methods from HIV-infected individuals, and from uninfected individuals. Varying dosages of KBP or VBP were contacted with the PBMC in vitro, and stimulation of proliferation was measured by incorporation of ^3H thymidine (cpm).

[2] = relatively low doses (10^−7M), FIG. 2

Structure (SMILES)	proliferation of PBMC of HIV-infected patients ([1]; higher doses (10^−4M), FIG. 2)	proliferation of PBMC of HIV-infected patients [1, 2]	stimulation of proliferation (incorporation of 3H thymidine, cpm) [1]	stimulation of PBMC of HIV-infected patients ([1]; concentrations of 10^−6, FIG. 2)	cytotoxicity (T-cells)	cytotoxicity to T-cells (T-cells)	toxicity observed in vitro (T-cells)
NCCCC[C@H](N)C(=O)N1CCC[C@H]1B(O)O [Lys-boroPro]	did not have this effect	caused proliferation	stimulated proliferation				
CC(C)[C@H](N)C(=O)N1CCC[C@H]1B(O)O [Val-boroPro]	did not have this effect	caused proliferation	stimulated proliferation	there was stimulation	approximately 50%	highly cytotoxic	greater than 80%

From patent US6503882B2, “Treatment of HIV” (Trustees of Tufts College, priority 1997, dated 2003)
